Test system: HUVEC/MSC spheroids viability
Test: Human HUVEC/MSC cell line growth inhibition [KRAS2];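 on viability, T/C: percent of DMSO vehicle control luminescence so 100% = untreated viability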
Details: for IC50: curve of first compound; for viability, T/C: stronger effect = lower value
How it was run: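 The concentration series started at or near clinical Cmax (10 microM if not known) and fell in half-log increments, alone or in combination. Cells were stromal-only spheroids of pooled-donor HUVEC and hMSC (passage </=5), with different drug plates and layout from the tumor spheroid screens.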

[1] = second compound 0.0316 µM, first compound 0.0316 µM
[2] = second compound 0.0316 µM, first compound 0.1 µM
[3] = second compound 0.0316 µM, first compound 0.316 µM
[4] = second compound 0.0316 µM, first compound 1 µM
[5] = second compound 0.0316 µM, first compound 3.16 µM
[6] = second compound 0.0316 µM, first compound 10 µM
[7] = second compound 0.1 µM, first compound 0.0316 µM
[8] = second compound 0.1 µM, first compound 0.1 µM
[9] = second compound 0.1 µM, first compound 0.316 µM
[10] = second compound 0.1 µM, first compound 1 µM
[11] = second compound 0.1 µM, first compound 3.16 µM
[12] = second compound 0.1 µM, first compound 10 µM
[13] = second compound 0.316 µM, first compound 0.0316 µM
[14] = second compound 0.316 µM, first compound 0.1 µM
[15] = second compound 0.316 µM, first compound 0.316 µM
[16] = second compound 0.316 µM, first compound 1 µM
[17] = second compound 0.316 µM, first compound 3.16 µM
[18] = second compound 0.316 µM, first compound 10 µM
[19] = second compound 1 µM, first compound 0.0316 µM
[20] = second compound 1 µM, first compound 0.1 µM
[21] = second compound 1 µM, first compound 0.316 µM
[22] = second compound 1 µM, first compound 1 µM
[23] = second compound 1 µM, first compound 3.16 µM
[24] = second compound 1 µM, first compound 10 µM
[25] = second compound 3.16 µM, first compound 0.0316 µM
[26] = second compound 3.16 µM, first compound 0.1 µM
[27] = second compound 3.16 µM, first compound 0.316 µM
[28] = second compound 3.16 µM, first compound 1 µM
[29] = second compound 3.16 µM, first compound 3.16 µM
[30] = second compound 3.16 µM, first compound 10 µM
[31] = second compound 10 µM, first compound 0.0316 µM
[32] = second compound 10 µM, first compound 0.1 µM
[33] = second compound 10 µM, first compound 0.316 µM
[34] = second compound 10 µM, first compound 1 µM
[35] = second compound 10 µM, first compound 3.16 µM
[36] = second compound 10 µM, first compound 10 µM

Work on CC(=O)Nc1cccc(-n2c(=O)n(C3CC3)c(=O)c3c(Nc4ccc(I)cc4F)n(C)c(=O)c(C)c32)c1 + COc1cc2nc(C)nc(NC(C)c3cc(N)cc(C(F)(F)F)c3)c2cc1OC1CCOC1 yielded an IC50 (second compound 0.0316 µM) of 15.3 nM, an IC50 (second compound 0.1 µM) of 15.2 nM and an IC50 (second compound 0.316 µM) of 13.1 nM. For the same molecule, the IC50 (second compound 1 µM) was 13 nM, the IC50 (second compound 3.16 µM) was 14.4 nM and the IC50 (second compound 10 µM) was 10.4 nM. The viability, T/C (second compound 0.0316 µM, first compound 94.9 pM) was 126%, the viability, T/C (second compound 0.0316 µM, first compound 0.0003 µM) was 124% and the viability, T/C (second compound 0.0316 µM, first compound 0.000949 µM) was 105%. For the same molecule, the viability, T/C (second compound 0.0316 µM, first compound 0.003 µM) was 92.6%, the viability, T/C (second compound 0.0316 µM, first compound 0.00949 µM) was 78.8% and the viability, T/C (second compound 0.0316 µM, first compound 0.03 µM) was 18.3%. For the same molecule, the viability, T/C (second compound 0.1 µM, first compound 94.9 pM) was 105%, the viability, T/C (second compound 0.1 µM, first compound 0.0003 µM) was 129% and the viability, T/C (second compound 0.1 µM, first compound 0.000949 µM) was 129%. The viability, T/C (second compound 0.1 µM, first compound 0.003 µM) was 74.2%, the viability, T/C (second compound 0.1 µM, first compound 0.00949 µM) was 80.2% and the viability, T/C (second compound 0.1 µM, first compound 0.03 µM) was 18.6%. For the same molecule, the viability, T/C (second compound 0.316 µM, first compound 94.9 pM) was 103%, the viability, T/C (second compound 0.316 µM, first compound 0.0003 µM) was 134% and the viability, T/C (second compound 0.316 µM, first compound 0.000949 µM) was 115%. It also gave a viability, T/C (second compound 0.316 µM, first compound 0.003 µM) of 82.6%, a viability, T/C (second compound 0.316 µM, first compound 0.00949 µM) of 68.8% and a viability, T/C (second compound 0.316 µM, first compound 0.03 µM) of 14.6%. It also gave a viability, T/C (second compound 1 µM, first compound 94.9 pM) of 108%, a viability, T/C (second compound 1 µM, first compound 0.0003 µM) of 125% and a viability, T/C (second compound 1 µM, first compound 0.000949 µM) of 91.4%. It also gave a viability, T/C (second compound 1 µM, first compound 0.003 µM) of 76.7%, a viability, T/C (second compound 1 µM, first compound 0.00949 µM) of 73.2% and a viability, T/C (second compound 1 µM, first compound 0.03 µM) of 15.2%. For the same molecule, the viability, T/C (second compound 3.16 µM, first compound 94.9 pM) was 91%, the viability, T/C (second compound 3.16 µM, first compound 0.0003 µM) was 104% and the viability, T/C (second compound 3.16 µM, first compound 0.000949 µM) was 113%. The viability, T/C (second compound 3.16 µM, first compound 0.003 µM) was 68.8%, the viability, T/C (second compound 3.16 µM, first compound 0.00949 µM) was 76.4% and the viability, T/C (second compound 3.16 µM, first compound 0.03 µM) was 15.9%. For the same molecule, the viability, T/C (second compound 10 µM, first compound 94.9 pM) was 83%, the viability, T/C (second compound 10 µM, first compound 0.0003 µM) was 99% and the viability, T/C (second compound 10 µM, first compound 0.000949 µM) was 97%. It also gave a viability, T/C (second compound 10 µM, first compound 0.003 µM) of 59.6%, a viability, T/C (second compound 10 µM, first compound 0.00949 µM) of 60.4% and a viability, T/C (second compound 10 µM, first compound 0.03 µM) of 5.88%.

COC(=O)c1ccc2c(C(=Nc3ccc(N(C)C(=O)CN4CCN(C)CC4)cc3)c3ccccc3)c(O)[nH]c2c1 + COc1cc2nc(C)nc(NC(C)c3cc(N)cc(C(F)(F)F)c3)c2cc1OC1CCOC1 showed an IC50 (second compound 0.0316 µM) of 949 nM, an IC50 (second compound 0.1 µM) of 783 nM and an IC50 (second compound 0.316 µM) of 551 nM. It also gave an IC50 (second compound 1 µM) of 739 nM, an IC50 (second compound 3.16 µM) of 619 nM and an IC50 (second compound 10 µM) of 604 nM. It also gave a viability, T/C [1] of 77.5%, a viability, T/C [2] of 78.8% and a viability, T/C [3] of 72.5%. For the same molecule, the viability, T/C [4] was 41%, the viability, T/C [5] was 29.7% and the viability, T/C [6] was 0.31%. The viability, T/C [7] was 78.7%, the viability, T/C [8] was 89.2% and the viability, T/C [9] was 67.3%. For the same molecule, the viability, T/C [10] was 40.2%, the viability, T/C [11] was 24.7% and the viability, T/C [12] was 0.32%. For the same molecule, the viability, T/C [13] was 72.2%, the viability, T/C [14] was 83.1% and the viability, T/C [15] was 52.7%. It also gave a viability, T/C [16] of 39.1%, a viability, T/C [17] of 22% and a viability, T/C [18] of 0.35%. For the same molecule, the viability, T/C [19] was 80.1%, the viability, T/C [20] was 83.4% and the viability, T/C [21] was 73%. It also gave a viability, T/C [22] of 38.6%, a viability, T/C [23] of 19.2% and a viability, T/C [24] of 0.36%. It also gave a viability, T/C [25] of 59.8%, a viability, T/C [26] of 68.5% and a viability, T/C [27] of 62.5%. The viability, T/C [28] was 40.4%, the viability, T/C [29] was 17.2% and the viability, T/C [30] was 0.29%. It also gave a viability, T/C [31] of 63.2%, a viability, T/C [32] of 68% and a viability, T/C [33] of 62.7%. For the same molecule, the viability, T/C [34] was 39.1%, the viability, T/C [35] was 0.52% and the viability, T/C [36] was 0.28%.

Work on COc1cc(Nc2ncc3c(n2)-c2ccc(Cl)cc2C(c2c(F)cccc2OC)=NC3)ccc1C(=O)O + COc1cc2nc(C)nc(NC(C)c3cc(N)cc(C(F)(F)F)c3)c2cc1OC1CCOC1 yielded an IC50 (second compound 0.0316 µM) of over 10000 nM, an IC50 (second compound 0.1 µM) of over 10000 nM and an IC50 (second compound 0.316 µM) of 9250 nM. The IC50 (second compound 1 µM) was over 10000 nM, the IC50 (second compound 3.16 µM) was 9650 nM and the IC50 (second compound 10 µM) was 8570 nM. For the same molecule, the viability, T/C [1] was 79.5%, the viability, T/C [2] was 94.3% and the viability, T/C [3] was 109%. The viability, T/C [4] was 82.5%, the viability, T/C [5] was 111% and the viability, T/C [6] was 61.6%. It also gave a viability, T/C [7] of 95.5%, a viability, T/C [8] of 89.7% and a viability, T/C [9] of 105%. For the same molecule, the viability, T/C [10] was 85.8%, the viability, T/C [11] was 97% and the viability, T/C [12] was 58.8%. For the same molecule, the viability, T/C [13] was 87.8%, the viability, T/C [14] was 97.1% and the viability, T/C [15] was 92.5%. For the same molecule, the viability, T/C [16] was 105%, the viability, T/C [17] was 104% and the viability, T/C [18] was 46.5%. It also gave a viability, T/C [19] of 86.9%, a viability, T/C [20] of 89.5% and a viability, T/C [21] of 96.8%. For the same molecule, the viability, T/C [22] was 106%, the viability, T/C [23] was 107% and the viability, T/C [24] was 52.7%. The viability, T/C [25] was 77.4%, the viability, T/C [26] was 94.8% and the viability, T/C [27] was 102%. The viability, T/C [28] was 77%, the viability, T/C [29] was 102% and the viability, T/C [30] was 48.7%. For the same molecule, the viability, T/C [31] was 62.5%, the viability, T/C [32] was 85.8% and the viability, T/C [33] was 72.5%. It also gave a viability, T/C [34] of 84.9%, a viability, T/C [35] of 74.9% and a viability, T/C [36] of 46.1%.

With COc1cc2nccc(Oc3ccc(NC(=O)C4(C(=O)Nc5ccc(F)cc5)CC4)cc3)c2cc1OC + COc1cc2nc(C)nc(NC(C)c3cc(N)cc(C(F)(F)F)c3)c2cc1OC1CCOC1 the IC50 (second compound 0.0316 µM) was 6120 nM, the IC50 (second compound 0.1 µM) was 4190 nM and the IC50 (second compound 0.316 µM) was 5330 nM. For the same molecule, the IC50 (second compound 1 µM) was 5100 nM, the IC50 (second compound 3.16 µM) was 4260 nM and the IC50 (second compound 10 µM) was 1870 nM. It also gave a viability, T/C [1] of 73.8%, a viability, T/C [2] of 75.2% and a viability, T/C [3] of 66.8%. For the same molecule, the viability, T/C [4] was 80.3%, the viability, T/C [5] was 73.5% and the viability, T/C [6] was 32.5%. The viability, T/C [7] was 74.7%, the viability, T/C [8] was 77% and the viability, T/C [9] was 68%. It also gave a viability, T/C [10] of 64.8%, a viability, T/C [11] of 63.4% and a viability, T/C [12] of 15.9%. It also gave a viability, T/C [13] of 66.1%, a viability, T/C [14] of 68.5% and a viability, T/C [15] of 60.8%. For the same molecule, the viability, T/C [16] was 78.2%, the viability, T/C [17] was 87.7% and the viability, T/C [18] was 23.3%. For the same molecule, the viability, T/C [19] was 61.6%, the viability, T/C [20] was 69% and the viability, T/C [21] was 58.1%. It also gave a viability, T/C [22] of 85.2%, a viability, T/C [23] of 79.4% and a viability, T/C [24] of 21.1%. It also gave a viability, T/C [25] of 60.6%, a viability, T/C [26] of 67.2% and a viability, T/C [27] of 60.9%. For the same molecule, the viability, T/C [28] was 76.5%, the viability, T/C [29] was 66.9% and the viability, T/C [30] was 3.26%. It also gave a viability, T/C [31] of 56.9%, a viability, T/C [32] of 57.8% and a viability, T/C [33] of 73.3%. The viability, T/C [34] was 82.5%, the viability, T/C [35] was 35.1% and the viability, T/C [36] was 0.26%.
